We go through two compounds from patent US6960592B2, “1,6-dihydro-7H-pyrazolo[4,3-d]pyrimidin-7-one compound for the treatment of impotence” (priority 2001, dated 2005).

Structures are written as SMILES.

One series deals with rats with testis removed. The series is described as follows: Penis erection test in rats with testis removed. Type of series: in vivo. The source says: Test 1. Penis erection test of the compound formula (I′) in rats with testis removed
A further series relates to male mice. Conditions: orally, single dose, from Chinese Journal of Clinical Pharmacology and Therapeutics 1999, 4(3), 237-240; cited from earlier work.
The subject of a further series is mice with testis removed. Description: Effect on the sexual function in mice with testis removed. In kind it is in vivo. The text has this: Test 2. Effect of the compound of formula (I′) on the sexual function in mice with testis removed
Series [1] is described as follows: Toxicity test, LD50 by Bliss method, oral gavage. Conditions: mouse, in vivo, mice, orally by gavage, confidence limit of 95% 772.5-1052.1 mg/kg, read-out: half-lethal dosage (LD50). As for the experimental part:
The confidence limit of 95% is 772.5-1052.1 mg/kg.

As usually defined, the LD50 is the dose at which mortality reaches 50%. As for `CCCc1nn(C)c2c(=O)[nH]c(-c3cc(S(=O)(=O)N4CCN(C)CC4)ccc3OCC)nc12` [sildenafil, 1-[4-ethoxy-3-(6,7-dihydro-1-methyl-7-oxo-3-propyl-1H-pyrazolo[4,3-d]pyrimidin-5-yl)phenylsulphonyl]-4-methylpiperazine, reference compound], the “latent period of penis erection by electric irritation (10V)” value with rats with testis removed (sildenafil comparator, dose not given, P<0.01) was “significantly shortened”. Further, the LD50 in the series on male mice is on record as 625 mg/kg.

For `CCCc1nn(C)c2c(=O)[nH]c(-c3cc(S(=O)(=O)N4C[C@@H](C)N[C@@H](C)C4)ccc3OCC)nc12` [compound of formula (I′), 5-[[2-ethoxy-5-(cis-2,6-dimethylpiperazin-4-ylsulphonyl)phenyl]]-1-methyl-3-n-propyl-7,6-dihydro-1H-pyrazolo[4,3-d]pyrimidin-7-one], the “latent period of penis erection by electric irritation (10V)” value is “significantly shortened” in the series with rats with testis removed (dosage 12 mg/kg, P<0.01) and “significantly shortened” in the series on rats with testis removed (dosage 24 mg/kg, P<0.05). In addition, the “latent period which male mice catch female mice” value with mice with testis removed (dosage 12 mg/kg, P<0.01) is “significantly shortened”; in the series on mice with testis removed (dosage 24 mg/kg, P<0.05), “significantly shortened”. Besides, the “times of back-climbing on female mice by male mice (times of sexual intercourse)” value is “significantly increased” in the series on mice with testis removed (dosage 12 mg/kg, P<0.01) and “significantly increased” in the series on mice with testis removed (dosage 24 mg/kg, P<0.05). Also, the LD50 in series [1] came to 902 mg/kg.
